Experimental data from ChEMBL document CHEMBL3817825, “Synthesis and biological evaluation of Schiff base-linked imidazolyl naphthalimides as novel potential anti-MRSA agents” (2016).
In brackets after ≈: the same amount, converted by molar mass. Activity calls are given as the source filed them. The rule behind the calls is not given here.

Columns and labels:
[1] = test system: Staphylococcus aureus; test: Antibacterial activity against methicillin-resistant Staphylococcus aureus N315 after 24 hrs by two fold serial dilution method; assay type: functional; details: N315, 24 h
[2] = test system: Staphylococcus aureus; test: Antibacterial activity against Staphylococcus aureus ATCC25923 after 24 hrs by two fold serial dilution method; assay type: functional; details: ATCC25923, 24 h
[3] = test system: Bacillus subtilis; test: Antibacterial activity against Bacillus subtilis ATCC6633 after 24 hrs by two fold serial dilution method; assay type: functional; details: ATCC6633, 24 h
[4] = test system: Micrococcus luteus; test: Antibacterial activity against Micrococcus luteus ATCC4698 after 24 hrs by two fold serial dilution method; assay type: functional; details: ATCC4698, 24 h
[5] = test system: Escherichia coli; test: Antibacterial activity against Escherichia coli DH52 after 24 hrs by two fold serial dilution method; assay type: functional; details: DH52, 24 h
[6] = test system: Escherichia coli; test: Antibacterial activity against Escherichia coli JM109 after 24 hrs by two fold serial dilution method; assay type: functional; details: JM109, 24 h
[7] = test system: Shigella dysenteriae; test: Antibacterial activity against Shigella dysenteriae after 24 hrs by two fold serial dilution method; assay type: functional
[8] = test system: Pseudomonas aeruginosa; test: Antibacterial activity against Pseudomonas aeruginosa ATCC27853 after 24 hrs by two fold serial dilution method; assay type: functional; details: ATCC27853, 24 h
[9] = test system: Bacillus; test: Antibacterial activity against Bacillus proteus ATCC13315 after 24 hrs by two fold serial dilution method; assay type: functional; details: ATCC13315, 24 h
[10] = test system: Salmonella typhi; test: Antibacterial activity against Bacillus typhi after 24 hrs by two fold serial dilution method; assay type: functional, Salmonella enterica subsp. enterica serovar Typhi; details: Salmonella enterica
[11] = test system: Candida albicans; test: Antifungal activity against Candida albicans ATCC76615 after 24 hrs by two fold serial dilution method; assay type: functional; details: ATCC76615, 24 h
[12] = test system: Candida; test: Antifungal activity against Candida mycoderma ATCC10231 after 24 hrs by two fold serial dilution method; assay type: functional; details: ATCC10231, 24 h
[13] = test system: Cyberlindnera jadinii; test: Antifungal activity against Candida utilis ATCC9950 after 24 hrs by two fold serial dilution method; assay type: functional; details: Williopsis jadinii, ATCC9950, 24 h
[14] = test system: Aspergillus flavus; test: Antifungal activity against Aspergillus flavus ATCC204304 after 24 hrs by two fold serial dilution method; assay type: functional; details: ATCC204304, 24 h
[15] = test system: Saccharomyces cerevisiae; test: Antifungal activity against Beer yeast ATCC9763 after 24 hrs by two fold serial dilution method; assay type: functional; details: ATCC9763, 24 h
[16] = test system: Cyberlindnera jadinii; test: Potency index, ratio of fluconazole MIC to compound MIC for Candida utilis ATCC9950; assay type: functional
[17] = test system: Staphylococcus aureus; test: Potency index, ratio of chloromycin MIC to compound MIC for methicillin-resistant Staphylococcus aureus N315; assay type: functional
[18] = test system: Staphylococcus aureus; test: Potency index, ratio of norfloxacin MIC to compound MIC for methicillin-resistant Staphylococcus aureus N315; assay type: functional
[19] = test system: Staphylococcus aureus; test: Antibacterial activity against methicillin-resistant Staphylococcus aureus N315 assessed as membrane permeabilization at 12 times MIC monitored for 2 hrs by propidium iodide staining method; assay type: functional, organism-based
[20] = test system: Bacillus; test: Antibacterial activity against Bacillus proteus ATCC13315 assessed as membrane permeabilization at 12 times MIC monitored for 2 hrs by propidium iodide staining method; assay type: functional, organism-based
[21] = test system: Staphylococcus aureus; test: Ratio of MIC for methicillin-resistant Staphylococcus aureus N315 after 10 passages to MIC for methicillin-resistant Staphylococcus aureus N315 before 10 passages; assay type: functional
[22] = test system: Staphylococcus aureus; test: Antibacterial activity against methicillin-resistant Staphylococcus aureus N315 at 0.5 times MIC after 10 passages by two fold serial dilution method; assay type: functional, organism-based
[23] = test system: Staphylococcus aureus; test: Bactericidal activity against methicillin-resistant Staphylococcus aureus N315 assessed as reduction in viable bacterial count at 6 times MIC within 1.5 hrs by time kill assay; assay type: functional
[24] = test system: Calf thymus DNA; test: Binding affinity to calf thymus DNA assessed as hypochromism at 260 nm at 0 to 9 X 10^-5 mol/L by UV-Vis spectroscopy; assay type: nucleic-acid assay; details: Bos taurus
[25] = test system: Calf thymus DNA; test: Binding affinity to calf thymus DNA at 260 nm by UV-Vis spectroscopy; assay type: nucleic-acid assay; details: Bos taurus
[26] = test system: Calf thymus DNA; test: Binding affinity to neutral red bound calf thymus DNA assessed as increase in absorption at 460 nm at 0 to 10.5 X 10^-5 mol/L by UV-Vis spectroscopy; assay type: nucleic-acid assay; details: Bos taurus
[27] = test system: Escherichia coli; test: Potency index, ratio of chloromycin MIC to compound MIC for Escherichia coli JM109; assay type: functional
[28] = test system: Bacillus subtilis; test: Potency index, ratio of chloromycin MIC to compound MIC for Bacillus subtilis ATCC6633; assay type: functional

Structure (SMILES)	MIC [1]	MIC [2]	MIC [3]	MIC [4]	MIC [5]	MIC [6]	MIC [7]	MIC [8]	MIC [9]	MIC [10]	MIC [11]	MIC [12]	MIC [13]	MIC [14]	MIC [15]	further results
CCCCCCCCCCn1c(CCCC)nc(Cl)c1/C=N/N1C(=O)c2cccc3c(N4CCOCC4)ccc(c23)C1=O	30 µM (≈ 18.2 µg/mL)	420 µM (≈ 255 µg/mL)	30 µM (≈ 18.2 µg/mL)	840 µM (≈ 509 µg/mL)	420 µM (≈ 255 µg/mL)	840 µM (≈ 509 µg/mL)	0.1 µM (≈ 0.0606 µg/mL)	420 µM (≈ 255 µg/mL)	210 µM (≈ 127 µg/mL)	0.84 µM (≈ 0.509 µg/mL)	210 µM (≈ 127 µg/mL)	210 µM (≈ 127 µg/mL)	3 µM (≈ 1.82 µg/mL)	210 µM (≈ 127 µg/mL)	420 µM (≈ 255 µg/mL)	Ratio [16]: 10
CCCCc1nc(Cl)c(/C=N/N2C(=O)c3cccc4c(N5CCOCC5)ccc(c34)C2=O)n1Cc1ccc([N+](=O)[O-])cc1	3 µM (≈ 1.8 µg/mL)	210 µM (≈ 126 µg/mL)	210 µM (≈ 126 µg/mL)	850 µM (≈ 511 µg/mL)	420 µM (≈ 252 µg/mL)	50 µM (≈ 30.1 µg/mL)	0.11 µM (≈ 0.0661 µg/mL)	50 µM (≈ 30.1 µg/mL)	110 µM (≈ 66.1 µg/mL)	0.11 µM (≈ 0.0661 µg/mL)	3 µM (≈ 1.8 µg/mL)	50 µM (≈ 30.1 µg/mL)	10 µM (≈ 6.01 µg/mL)	110 µM (≈ 66.1 µg/mL)	420 µM (≈ 252 µg/mL)	Ratio [17]: 17; Ratio [18]: 7; Activity [19]: Active; Activity [20]: Active; Ratio [21]: <=100; Activity [22]: Active; Activity [23]: >3 log10CFU/ml; Activity [24]: Active; K [25]: 0.59 ×10⁴ L/mol; Activity [26]: Active
CCCCc1nc(Cl)c(/C=N/N2C(=O)c3cccc4c(N5CCCC5)ccc(c34)C2=O)[nH]1	280 µM (≈ 126 µg/mL)	570 µM (≈ 256 µg/mL)	570 µM (≈ 256 µg/mL)	280 µM (≈ 126 µg/mL)	280 µM (≈ 126 µg/mL)	280 µM (≈ 126 µg/mL)	0.57 µM (≈ 0.256 µg/mL)	570 µM (≈ 256 µg/mL)	570 µM (≈ 256 µg/mL)	0.57 µM (≈ 0.256 µg/mL)	140 µM (≈ 63 µg/mL)	140 µM (≈ 63 µg/mL)	280 µM (≈ 126 µg/mL)	570 µM (≈ 256 µg/mL)	570 µM (≈ 256 µg/mL)	
CCCCc1nc(Cl)c(/C=N/N2C(=O)c3cccc4c(N5CCOCC5)ccc(c34)C2=O)n1Cc1ccc(Cl)cc1Cl	370 µM (≈ 231 µg/mL)	180 µM (≈ 112 µg/mL)	370 µM (≈ 231 µg/mL)	180 µM (≈ 112 µg/mL)	740 µM (≈ 462 µg/mL)	370 µM (≈ 231 µg/mL)	0.37 µM (≈ 0.231 µg/mL)	180 µM (≈ 112 µg/mL)	370 µM (≈ 231 µg/mL)	0.37 µM (≈ 0.231 µg/mL)	370 µM (≈ 231 µg/mL)	370 µM (≈ 231 µg/mL)	180 µM (≈ 112 µg/mL)	180 µM (≈ 112 µg/mL)	370 µM (≈ 231 µg/mL)	
CCCCc1nc(Cl)c(/C=N/N2C(=O)c3cccc4c(N5CCOCC5)ccc(c34)C2=O)n1Cc1ccc(OC)cc1	440 µM (≈ 258 µg/mL)	440 µM (≈ 258 µg/mL)	440 µM (≈ 258 µg/mL)	870 µM (≈ 510 µg/mL)	440 µM (≈ 258 µg/mL)	870 µM (≈ 510 µg/mL)	0.44 µM (≈ 0.258 µg/mL)	440 µM (≈ 258 µg/mL)	220 µM (≈ 129 µg/mL)	0.44 µM (≈ 0.258 µg/mL)	430 µM (≈ 252 µg/mL)	870 µM (≈ 510 µg/mL)	430 µM (≈ 252 µg/mL)	430 µM (≈ 252 µg/mL)	220 µM (≈ 129 µg/mL)	
CCCCCCCCCCCCn1c(CCCC)nc(Cl)c1/C=N/N1C(=O)c2cccc3c(N4CCOCC4)ccc(c23)C1=O	200 µM (≈ 127 µg/mL)	400 µM (≈ 254 µg/mL)	800 µM (≈ 507 µg/mL)	400 µM (≈ 254 µg/mL)	800 µM (≈ 507 µg/mL)	10 µM (≈ 6.34 µg/mL)	0.8 µM (≈ 0.507 µg/mL)	800 µM (≈ 507 µg/mL)	800 µM (≈ 507 µg/mL)	0.8 µM (≈ 0.507 µg/mL)	810 µM (≈ 514 µg/mL)	810 µM (≈ 514 µg/mL)	10 µM (≈ 6.34 µg/mL)	810 µM (≈ 514 µg/mL)	400 µM (≈ 254 µg/mL)	Ratio [27]: 10
CCCCc1nc(Cl)c(/C=N/N2C(=O)c3cccc4c(N5CCOCC5)ccc(c34)C2=O)n1Cc1cccc(F)c1	440 µM (≈ 253 µg/mL)	220 µM (≈ 126 µg/mL)	440 µM (≈ 253 µg/mL)	440 µM (≈ 253 µg/mL)	440 µM (≈ 253 µg/mL)	440 µM (≈ 253 µg/mL)	0.89 µM (≈ 0.511 µg/mL)	440 µM (≈ 253 µg/mL)	220 µM (≈ 126 µg/mL)	0.89 µM (≈ 0.511 µg/mL)	440 µM (≈ 253 µg/mL)	440 µM (≈ 253 µg/mL)	440 µM (≈ 253 µg/mL)	440 µM (≈ 253 µg/mL)	440 µM (≈ 253 µg/mL)	
CCCCc1nc(Cl)c(/C=N/N2C(=O)c3cccc4c(N5CCOCC5)ccc(c34)C2=O)n1Cc1cccc(Cl)c1	430 µM (≈ 254 µg/mL)	430 µM (≈ 254 µg/mL)	7 µM (≈ 4.13 µg/mL)	430 µM (≈ 254 µg/mL)	430 µM (≈ 254 µg/mL)	430 µM (≈ 254 µg/mL)	0.11 µM (≈ 0.065 µg/mL)	430 µM (≈ 254 µg/mL)	220 µM (≈ 130 µg/mL)	0.43 µM (≈ 0.254 µg/mL)	430 µM (≈ 254 µg/mL)	430 µM (≈ 254 µg/mL)	220 µM (≈ 130 µg/mL)	430 µM (≈ 254 µg/mL)	220 µM (≈ 130 µg/mL)	Ratio [28]: 14
